Several values for one entry are separate records, joined by “and”; a condition that tells them apart may be missing. Equal values may be shown once.
Legend:
virus-infected T cells = details: Blood Cells 18:129-40 (1992); cited from earlier work
normal skin tissue = details: systemically administered, clinical use; cited from earlier work
[1] = test system: transplanted human tumors; assay: Low fluence PDT of established transplanted human tumors in nude mice; type: in vivo; details: for tumor necrosis: 660 nm light 30 microwatts per cm^2 for 72 hours, after 7 days
Procedure: (§1) A series of experiments were performed using nude mice growing transplanted human tumors. The mice are injected with various photosensitizers and the tumors illuminated with low fluence of only […] of light over a 72 hour time period. Extended tumor necrosis was observed.
(§2) Another two mice with established tumors were injected with 50-100 micrograms of Pheophorbide A into the lesion and exposed to 660 nm light (30 microwatts per cm^2) for 72 hours.
(§3) Two experimental mice were injected with epithelial cancer cells preincubated with 20 micrograms of Chlorin e6. […] Another two mice were injected with 100-150 micrograms of Chlorin e6 intratumorally and then exposed to 660 nm light (30 microwatts per cm^2) for 72 hours.
Five experimental mice bearing established tumors were injected with 1 mg Hpd intraperitoneally followed by exposure to 630 nm (peak) light ([…]) for 72 hours. […] There was no effect observed on control animals maintained in the absence of light (dark control mice).

epithelial cancer cells = assay: Low fluence PDT of nude mice injected with epithelial cancer cells preincubated with photosensitizer; type: in vivo; details: for tumor growth: 660 nm light about 48 hours, 30 microwatts per cm^2, after 1.5 months
Procedure: as §1, §2, §3

[2] = test system: colon carcinoma tumor mass; assay: Photodynamic therapy of a solid tumor in a patient with implanted LED light source probes; type: in vivo, human
Excerpt: A patient in the terminal phase of recurrent malignant colon cancer having undergone chemotherapy and irradiation therapy, presented with a protruding colon carcinoma tumor mass of approximately 500 grams and approximately 13 cm in diameter, which extended through the patient's dermis. Due to the advanced state of the patient's disease and due to the highly vascularized nature of this tumor mass, resection was not feasible. Further, this large tumor mass presented a significant amount of pain and discomfort to the patient, as well as greatly impairing the patient's ability to lie flat.
Six separate light source probes, each including a linear array of LEDs, were surgically implanted in this large human tumor using standard surgical procedures. A single dose of a photosensitizer agent (aminolevulinic acid (ALA) at 60 mg/kg) was provided by oral administration to the patient. Following a period of five hours to permit sufficient clearance of the photosensitizing agent from healthy tissues, light irradiation was administered. An intensity of about 25-30 mW of light from each light source probe (650 nm peak wavelength) was delivered to the tumor for 40 hours. […] The total fluence delivered to the tumor bed during this single extended duration treatment was in excess of 20,000 Joules.
The fluence rate employed in this Example represented about 150-180 mW/cm^2, with a total fluence more than 20,000 Joules.

[3] = cited from earlier work

benzoporphyrin derivatives [BPD]
effect on T cell membrane after exposure to light (virus-infected T cells): holes developed in the T cell membrane and increased in size until the membrane completely decomposed

Oc1cccc(-c2c3nc(c(-c4cccc(O)c4)c4ccc([nH]4)c(-c4cccc(O)c4)c4nc(c(-c5cccc(O)c5)c5ccc2[nH]5)CC4)C=C3)c1 [FOSCAN]
duration of dermal photosensitivity (normal skin tissue): at least several weeks

Pheophorbide A
tumor necrosis ([1]; 50-100 micrograms into the lesion): Extensive tumor necrosis | effect on tumor, dark control animals ([1]; 50-100 micrograms into the lesion, no light): no effect | tumor growth (epithelial cancer cells; cells preincubated with 10 micrograms): no tumor growth | tumor growth, dark controls (epithelial cancer cells; cells preincubated with 10 micrograms, maintained in the absence of light): developed a large tumor

CCOC(=O)C1=Cc2c3nc(cc4nc(cc5[n-]c(cc6[n-]c2c(C)c6CC)c(C)c5CC)C(C)=C4CC)[C@@H](C)[C@]13CC.[Cl-].[Cl-].[Sn] (racemic) [PURLYTIN]
duration of dermal photosensitivity (normal skin tissue): at least several weeks

NCC(=O)CCC(=O)O [ALA, aminolevulinic acid]
reduction of tumor tissue (necrotic tissue debrided) ([2]; over four weeks following PDT): approximately 500 grams | radius of extensive tumor necrosis from each of the light source probes ([2]; patient, ALA 60 mg/kg oral, 650 nm light, after 40 hours of PDT, total fluence > 20,000 Joules): greater than 5 cm | collateral damage to surrounding normal tissue ([2]; patient, ALA 60 mg/kg oral, after 40 hours of PDT): no collateral damage

sodium porfimer [PHOTOPHRIN]
duration of dermal photosensitivity (normal skin tissue): up to six weeks

CC(=O)[O-].CC(=O)[O-].CCc1c(CC)c2cc3nc(cnc4cc(OCCOCCOCCOC)c(OCCOCCOCCOC)cc4ncc4nc(cc1[n-]2)C(CCCO)=C4C)C(C)=C3CCCO.O.[Lu+3] [Lutrin, lutetium texaphyrin]
time tumor tissues retain the agent ([3]; from time of administration): 48 to 96 h and 24 to 96 h | time at which a larger proportion clears from normal tissue ([3]; in vivo): about 8 hours | time at which a proportion begins to clear from normal tissue ([3]; in vivo): about 3 hours | time at which an even greater proportion clears from normal tissue ([3]; in vivo): about 16 hours

C=Cc1c(C)c2cc3nc(c(CC(=O)O)c4[nH]c(cc5nc(cc1[nH]2)C(C)=C5CC)c(C)c4C(=O)O)[C@@H](CCC(=O)O)[C@@H]3C [Chlorin e6]
tumor necrosis ([1]; 100-150 micrograms intratumorally): Extensive tumor necrosis | tumor growth (epithelial cancer cells; cells preincubated with 20 micrograms): no tumor growth | tumor growth, dark control (epithelial cancer cells; cells preincubated with 20 micrograms, no light): developed a large tumor

Reference: patent US6899723B2, “Transcutaneous photodynamic treatment of targeted cells” (Light Sciences Corporation, priority 2001, dated 2005)
